Assay results as given in US12708116B2, “Herbicidal compositions comprising 2,4-D” (BASF SE, priority 2023, dated 2026).

Columns and labels:
Test in all cases: Post-emergence application in field trials
GLXMA = assay type: in vivo, Glycine max; conditions: Example 4; 21 DAT; g ai/ha A-1 12.5, B-5 1066; growth stage 13; height 5-8 cm
AMARE = assay type: in vivo, Amaranthus retroflexus; conditions: 8 DAT; g ai/ha A-1 25, B-5 1066; growth stage 19; height 10-20 cm; water volume 140 l/ha
PORPI = assay type: in vivo; conditions: 8 DAT; g ai/ha A-1 25, B-5 1066; height 2-8 cm; water volume 140 l/ha
AMATU = assay type: in vivo, Amaranthus tuberculatos; conditions: 8 DAT; g ai/ha A-1 12.5, B-5 1066; growth stage 19; height 10-20 cm; water volume 140 l/ha
CYPES = conditions: 21 DAT, water volume 140 l/ha
SETVI = assay type: in vivo, Setaria viridis; conditions: 15 DAT; g ai/ha A-1 12.5, B-5 1066, C-10 840; growth stage 13-19; height 2-18 cm; water volume 140 l/ha
ECHCG = assay type: in vivo, Echinochloa crus-galli
DATST = test system: DATST
ZEAMX = conditions: growth stage 15-16
DIGSA = test system: DIGSA
AMAPA = test system: AMAPA
HORVW = conditions: growth stage 23-29, height 20-25 cm
SETVE = conditions: growth stage 21-23

CCOC(=O)COc1ccccc1Oc1nc(-n2c(=O)cc(C(F)(F)F)n(C)c2=O)c(F)cc1Cl [A-1, ethyl 2-[2-[[3-chloro-5-fluoro-6-[3-methyl-2,6-dioxo-4-(trifluoromethyl)pyrimidin-1-yl]-2-pyridyl]oxy]phenoxy]acetate]
% Herbicidal activity (GLXMA): 90%
% Herbicidal activity (AMARE): 88%
% Herbicidal activity (PORPI): 90%
% Herbicidal activity (AMATU): 88%
% Herbicidal activity (CYPES; g ai/ha A-1 12.5, B-5 1066, C-11 655): 20%
% Herbicidal activity (CYPES; g ai/ha A-1 50, B-5 1066, C-11 655): 42%
% Herbicidal activity (CYPES; g ai/ha A-1 50, B-5 1066): 42%
% Herbicidal activity (SETVI): 68%
% Herbicidal activity (ECHCG; 13 DAT, g ai/ha A-1 12.5, B-5 1066, C-10 840, growth stage 21-26, height 15-30 cm, water volume 187 l/ha): 23%
% Herbicidal activity (ECHCG; 13 DAT, g ai/ha A-1 25, B-5 1066, C-10 840, growth stage 21-26, height 15-30 cm, water volume 187 l/ha): 20%
% Herbicidal activity (ECHCG; 13 DAT, g ai/ha A-1 50, B-5 1066, C-10 840, growth stage 21-26, height 15-30 cm, water volume 187 l/ha): 23%
% Herbicidal activity (ECHCG; Example 4, 21 DAT, g ai/ha A-1 12.5, B-5 1066, growth stage 23-30, height 15-20 cm): 30%
% Herbicidal activity (ECHCG; Example 6, 7 DAT, g ai/ha A-1 12.5, B-5 1066, C-11 400, growth stage 23-30, height 15-20 cm): 20%
% Herbicidal activity (ECHCG; Example 6, 28 DAT, g ai/ha A-1 12.5, B-5 1066, C-11 400, growth stage 23-30, height 15-20 cm): 20%
% Herbicidal activity (ECHCG; Example 7, 28 DAT, g ai/ha A-1 12.5, B-4 1066, C-11 400, growth stage 23-30, height 15-20 cm): 20%
% Herbicidal activity (ECHCG; Example 8, 7 DAT, g ai/ha A-1 12.5, B-5 1066, C-12 252, growth stage 23-30, height 15-20 cm): 20%
% Herbicidal activity (ECHCG; Example 8, 21 DAT, g ai/ha A-1 12.5, B-5 1066, C-12 252, growth stage 23-30, height 15-20 cm): 30%
% Herbicidal activity (ECHCG; Example 8, 28 DAT, g ai/ha A-1 12.5, B-5 1066, C-12 252, growth stage 23-30, height 15-20 cm): 20%
% Herbicidal activity (ECHCG; Example 9, 28 DAT, g ai/ha A-1 12.5, B-4 1066, C-12 252, growth stage 23-30, height 15-20 cm): 20%
% Herbicidal activity (ECHCG; Example 10, 21 DAT, g ai/ha A-1 12.5, B-5 1066, C-4 12.5, growth stage 23-30, height 15-20 cm): 30%
% Herbicidal activity (DATST; Example 4, 7 DAT, g ai/ha A-1 12.5, B-5 1066): 90%
% Herbicidal activity (DATST; Example 6, 21 DAT, g ai/ha A-1 12.5, B-5 1066, C-11 400): 90%
% Herbicidal activity (ZEAMX; Example 4, 7 DAT, g ai/ha A-1 18, B-5 1066, height 50-60 cm): 85%
% Herbicidal activity (ZEAMX; Example 4, 21 DAT, g ai/ha A-1 12.5, B-5 1066, height 50-60 cm): 80%
% Herbicidal activity (ZEAMX; Example 5, 21 DAT, g ai/ha A-1 12.5, B-4 1066, height 50-60 cm): 70%
% Herbicidal activity (ZEAMX; Example 6, 7 DAT, g ai/ha A-1 12.5, B-5 1066, C-11 400, height 25-30 cm): 40%
% Herbicidal activity (ZEAMX; Example 6, 28 DAT, g ai/ha A-1 12.5, B-5 1066, C-11 400, height 50-60 cm): 85%
% Herbicidal activity (ZEAMX; Example 7, 28 DAT, g ai/ha A-1 12.5, B-4 1066, C-11 400, height 50-60 cm): 50%
% Herbicidal activity (ZEAMX; Example 8, 28 DAT, g ai/ha A-1 12.5, B-5 1066, C-12 252, height 50-60 cm): 85%
% Herbicidal activity (ZEAMX; Example 9, 28 DAT, g ai/ha A-1 12.5, B-4 1066, C-12 252, height 50-60 cm): 50%
% Herbicidal activity (ZEAMX; Example 11, 21 DAT, g ai/ha A-1 12.5, B-4 1066, C-4 12.5, height 50-60 cm): 70%
% Herbicidal activity (DIGSA; 14 DAT, g ai/ha A-1 12.5, B-5 1066, height 2-8 cm, water volume 140 l/ha): 33%
% Herbicidal activity (DIGSA; 14 DAT, g ai/ha A-1 25, B-5 1066, height 2-8 cm, water volume 140 l/ha): 33%
% Herbicidal activity (DIGSA; 14 DAT, g ai/ha A-1 50, B-5 1066, height 2-8 cm, water volume 140 l/ha): 65%
% Herbicidal activity (DIGSA; 15 DAT, g ai/ha A-1 12.5, B-5 1066, C-10 840, growth stage 13-19, height 2-13 cm, water volume 140 l/ha): 68%
% Herbicidal activity (DIGSA; 21 DAT, g ai/ha A-1 12.5, B-5 1066, C-11 655, height 2-8 cm, water volume 140 l/ha): 27%
% Herbicidal activity (DIGSA; 21 DAT, g ai/ha A-1 12.5, B-5 1066, height 2-8 cm, water volume 140 l/ha): 27%
% Herbicidal activity (DIGSA; 21 DAT, g ai/ha A-1 25, B-5 1066, C-11 655, height 2-8 cm, water volume 140 l/ha): 28%
% Herbicidal activity (DIGSA; 21 DAT, g ai/ha A-1 25, B-5 1066, height 2-8 cm, water volume 140 l/ha): 28%
% Herbicidal activity (DIGSA; 21 DAT, g ai/ha A-1 50, B-5 1066, C-11 655, height 2-8 cm, water volume 140 l/ha): 55%
% Herbicidal activity (DIGSA; 21 DAT, g ai/ha A-1 50, B-5 1066, height 2-8 cm, water volume 140 l/ha): 55%
% Herbicidal activity (DIGSA; Example 6, 7 DAT, g ai/ha A-1 12.5, B-5 1066, C-11 400, growth stage 21-22, height 15-20 cm): 35%
% Herbicidal activity (DIGSA; Example 6, 21 DAT, g ai/ha A-1 12.5, B-5 1066, C-11 400, growth stage 21-22, height 15-20 cm): 35%
% Herbicidal activity (AMAPA; 13 DAT, g ai/ha A-1 25, B-5 1066, growth stage 16, height 15-25 cm, water volume 187 l/ha): 58%
% Herbicidal activity (AMAPA; 14 DAT, g ai/ha A-1 12.5, B-5 1066, C-10 840, growth stage 12-24, height 5-30 cm, water volume 140 l/ha): 73%
% Herbicidal activity (AMAPA; 14 DAT, g ai/ha A-1 25, B-5 1066, C-10 840, growth stage 12-24, height 5-30 cm, water volume 140 l/ha): 82%
% Herbicidal activity (AMAPA; 19 DAT, g ai/ha A-1 12.5, B-5 1066, growth stage 16, height 15-25 cm, water volume 187 l/ha): 40%
% Herbicidal activity (AMAPA; 19 DAT, g ai/ha A-1 25, B-5 1066, growth stage 16, height 15-25 cm, water volume 187 l/ha): 42%
% Herbicidal activity (AMAPA; 19 DAT, g ai/ha A-1 50, B-5 1066, growth stage 16, height 15-25 cm, water volume 187 l/ha): 52%
% Herbicidal activity (AMAPA; 21 DAT, g ai/ha A-1 12.5, B-5 1066, growth stage 12-28, height 7-20 cm, water volume 140 l/ha): 89%
% Herbicidal activity (AMAPA; 21 DAT, g ai/ha A-1 50, B-5 1066, height 5-23 cm, water volume 140 l/ha): 74%
% Herbicidal activity (HORVW; Example 4, 21 DAT, g ai/ha A-1 12.5, B-5 1066): 60%
% Herbicidal activity (HORVW; Example 5, 7 DAT, g ai/ha A-1 12.5, B-4 1066): 60%
% Herbicidal activity (HORVW; Example 6, 28 DAT, g ai/ha A-1 12.5, B-5 1066, C-11 400): 60%
% Herbicidal activity (HORVW; Example 7, 28 DAT, g ai/ha A-1 12.5, B-4 1066, C-11 400): 90%
% Herbicidal activity (HORVW; Example 8, 21 DAT, g ai/ha A-1 12.5, B-5 1066, C-12 252): 80%
% Herbicidal activity (HORVW; Example 9, 21 DAT, g ai/ha A-1 12.5, B-4 1066, C-12 252): 80%
% Herbicidal activity (HORVW; Example 10, 21 DAT, g ai/ha A-1 12.5, B-5 1066, C-4 12.5): 80%
% Herbicidal activity (HORVW; Example 11, 21 DAT, g ai/ha A-1 12.5, B-4 1066, C-4 12.5): 80%
% Herbicidal activity (SETVE; Example 4, 21 DAT, g ai/ha A-1 12.5, B-5 1066, height 8-16 cm): 65%
% Herbicidal activity (SETVE; Example 6, 7 DAT, g ai/ha A-1 12.5, B-5 1066, C-11 400, height 10-15 cm): 75%
% Herbicidal activity (SETVE; Example 6, 21 DAT, g ai/ha A-1 12.5, B-5 1066, C-11 400, height 10-15 cm): 55%
